Like-named read-outs stand apart in the source and are kept apart here.
Key:
[1] = molecular target: T1, Cqui\Orco + Cqui\Or10 (Culex quinquefasciatus, UniProt D5LMR7+Q309I4); test: Inhibition of odorant (3-methylindole) activation of Cqui\Orco + Cqui\Or10 in Xenopus oocytes; format: cell-based; settings: for Inhibition of activation of Cqui\Orco+Cqui\Or10 by 3-methylindole: 100 nM 3-methylindole, OLC compound 100 µM
[2] = molecular target: T2, Dmel\Orco (Drosophila melanogaster, UniProt Q9VNB5); test: Inhibition of OLC12 activation of Dmel\Orco in Xenopus oocytes; format: cell-based; settings: for IC50: activated by 30 µM OLC12 (EC39)
T2 construct: expressed in transfected cells; host or cells: Xenopus laevis oocytes (cRNA injection, pGEMHE)
T2 sequence (Q9VNB5 1-486): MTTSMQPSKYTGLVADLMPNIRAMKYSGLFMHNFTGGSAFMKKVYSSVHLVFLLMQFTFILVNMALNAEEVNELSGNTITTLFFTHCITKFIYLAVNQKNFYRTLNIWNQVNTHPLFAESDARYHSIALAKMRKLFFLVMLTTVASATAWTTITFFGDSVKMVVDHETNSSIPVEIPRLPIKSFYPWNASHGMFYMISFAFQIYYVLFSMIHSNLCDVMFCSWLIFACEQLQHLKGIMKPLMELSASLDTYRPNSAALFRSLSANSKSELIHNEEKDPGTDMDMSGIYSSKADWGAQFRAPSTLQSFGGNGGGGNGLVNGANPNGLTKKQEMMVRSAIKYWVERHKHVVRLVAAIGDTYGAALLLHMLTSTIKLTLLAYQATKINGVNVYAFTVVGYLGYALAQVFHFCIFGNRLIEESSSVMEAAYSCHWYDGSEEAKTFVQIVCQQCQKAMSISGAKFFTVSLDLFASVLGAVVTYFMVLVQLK
Description: (§1) Oocytes were surgically removed from mature Xenopus laevis frogs. Follicle cells were removed by treatment with Collagenase B (Boehringer Mannhem) for 2 hours at room temperature. Capped cRNA encoding each DmOR subunit was generated using mMessage mMachine kits (Ambion). For heteromeric ORs, 25 ng of cRNA encoding each OR subunit was injected into Stage V-VI Xenopus oocytes. For expression of Orco alone, 50 ng of cRNA was injected. Oocytes were incubated at 18°C in Barth’s saline (in mM: 88 NaCl, 1 KCl, 2.4 NaHCO3, 0.3 CaNO3, 0.41 CaCl2, 0.82 MgSO4, 15 HEPES, pH 7.6, and 150 µg/ml ceftazidime) for 2–5 days prior to electrophysiological recording.
(§2) Odorant and Orco ligand induced currents were recorded under two-electrode voltage clamp in Xenopus laevis oocytes expressing ORs, using an automated parallel electrophysiology system (OpusExpress 6000A; Molecular Devices). Oocytes were perfused with ND96 (in mM: 96 NaCl, 2 KCl, 1 CaCl2, 1 MgCl2, 5 HEPES, pH 7.5). Odorant stock solutions (0.5 or 1 M) and Orco ligand stock solutions (100 mM) were prepared in DMSO and diluted in ND96. Unless otherwise noted, applications were for 60 sec at a flow rate of 1.0 ml/min, with extensive washing in ND96 (9 or 20 min at 4.6 ml/min) between applications. Micropipettes were filled with 3 M KCl and had resistances of 0.2−2.0 MΩ. The holding potential was −70 mV. Current responses, filtered (4-pole, Bessel, low pass) at 20 Hz (−3 db) and sampled at 100 Hz, were captured and stored using OpusXpress 1.1 software (Molecular Devices).
(§3) In inhibition assays, oocytes were exposed to 60 sec applications of OLC12 with 9 min washes between applications (Fig. 3 and 4) or 60 sec applications of odorant with 20 min washes between applications (Fig. 5). Oocytes were then exposed to a 90 sec application of antagonist candidate, immediately followed by a 60 sec co-application of antagonist candidate and OLC12 or odorant. Oocytes were then exposed to a final 60 sec application of OLC12 or odorant. The current response in the presence of antagonist candidate was compared to the preceding response(s) to OLC12 (or odorant) alone.
(§4) Initial analysis of electrophysiological data was done using Clampfit 9.1 software (Molecular Devices). Curve fitting and statistical analyses were done using Prism 5 (Graphpad). Concentration-response data were fit to the equation: I = Imax/(1+(EC50/X)^n) where I represents the current response at a given concentration of odorant, X; Imax is the maximal response; EC50 is the concentration of agonist yielding a half maximal response; n is the apparent Hill coefficient. Concentration-inhibition data were fit to the equation: I = Imax/(1+(X/IC50)^n) where I represents the current response at a given concentration of inhibitor, X; Imax is the maximal response in the absence of inhibitor; IC50 is the concentration of inhibitor present that still allows a half maximal response from odorant; n is the apparent Hill coefficient. Statistical significance was assessed using a two-tailed unpaired t test, an F test, or a one-way analysis of variance followed by the Bonferroni’s post-test, as appropriate.

[3] = molecular target: T1, Cqui\Orco + Cqui\Or10; test: Activation of Cqui\Orco + Cqui\Or10 in Xenopus oocytes, two-electrode voltage clamp; format: cell-based; settings: 100 µM compound; mean ± SEM, n=3-8; read-out: Response amplitude as percentage of response to 100 µM OLC3, Cqui\Orco + Cqui\Or10
Description: as §1, §2, §4

[4] = tested on: Onub\Orco + Onub\Or1; test: Inhibition of odorant (E12-14:OAc) activation of Onub\Orco + Onub\Or1 in Xenopus oocytes; format: cell-based, Ostrinia nubilalis; settings: OLC compound 100 µM
Description: as §1
Odorant and Orco ligand induced currents were recorded under two-electrode voltage clamp in Xenopus laevis oocytes expressing ORs, using an automated parallel electrophysiology system (OpusExpress 6000A; Molecular Devices). Oocytes were perfused with ND96 (in mM: 96 NaCl, 2 KCl, 1 CaCl2, 1 MgCl2, 5 HEPES, pH 7.5). Odorant stock solutions (0.5 or 1 M) and Orco ligand stock solutions (100 mM) were prepared in DMSO and diluted in ND96. […]
Initial analysis of electrophysiological data was done using Clampfit 9.1 software (Molecular Devices). […] Statistical significance was assessed using a two-tailed unpaired t test, an F test, or a one-way analysis of variance followed by the Bonferroni’s post-test, as appropriate.

[5] = molecular target: T2, Dmel\Orco; test: Agonist activation of homomeric Dmel\Orco in Xenopus oocytes, two-electrode voltage clamp; format: cell-based; settings: read-out: Response amplitude as percentage of response to 100 µM OLC3, Dmel\Orco
Description: as §1, §2, §4

[6] = molecular target: T3, Dmel\Orco + Dmel\Or35a (Drosophila melanogaster, UniProt Q9VNB5); test: Agonist activation of Dmel\Orco + Dmel\Or35a in Xenopus oocytes, two-electrode voltage clamp; format: cell-based; settings: read-out: Response amplitude as percentage of response to 100 µM OLC3, Dmel\Orco + Dmel\Or35a
T3 construct: expressed in transfected cells; host or cells: Xenopus laevis oocytes (cRNA injection, pGEMHE)
T3 sequence (Q9VNB5 1-486): T2 sequence (Q9VNB5 1-486)
T3 sequence (Q9V3Q2 1-409 partner): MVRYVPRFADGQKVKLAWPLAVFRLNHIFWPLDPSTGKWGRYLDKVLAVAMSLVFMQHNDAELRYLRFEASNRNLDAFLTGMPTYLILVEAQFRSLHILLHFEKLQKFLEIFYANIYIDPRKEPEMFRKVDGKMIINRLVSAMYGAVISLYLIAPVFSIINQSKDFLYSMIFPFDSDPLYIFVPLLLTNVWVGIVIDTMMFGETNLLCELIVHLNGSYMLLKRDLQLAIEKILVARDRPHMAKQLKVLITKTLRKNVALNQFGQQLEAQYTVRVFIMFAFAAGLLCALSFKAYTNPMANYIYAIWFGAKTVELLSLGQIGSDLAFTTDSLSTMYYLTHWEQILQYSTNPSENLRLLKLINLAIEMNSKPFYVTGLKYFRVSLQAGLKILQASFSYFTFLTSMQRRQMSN
Description: as §1, §2, §4

[7] = molecular target: T3, Dmel\Orco + Dmel\Or35a; test: Inhibition of OLC12 activation of Dmel\Orco + Dmel\Or35a in Xenopus oocytes; format: cell-based
Description: as §1, §2, §3, §4

[8] = activated by 10 µM OLC12 (EC25), read-out: IC50, Dmel\Orco + Dmel\Or35a (activated by 10 µM OLC12)

T1 sequence (D5LMR7 entry or part of it): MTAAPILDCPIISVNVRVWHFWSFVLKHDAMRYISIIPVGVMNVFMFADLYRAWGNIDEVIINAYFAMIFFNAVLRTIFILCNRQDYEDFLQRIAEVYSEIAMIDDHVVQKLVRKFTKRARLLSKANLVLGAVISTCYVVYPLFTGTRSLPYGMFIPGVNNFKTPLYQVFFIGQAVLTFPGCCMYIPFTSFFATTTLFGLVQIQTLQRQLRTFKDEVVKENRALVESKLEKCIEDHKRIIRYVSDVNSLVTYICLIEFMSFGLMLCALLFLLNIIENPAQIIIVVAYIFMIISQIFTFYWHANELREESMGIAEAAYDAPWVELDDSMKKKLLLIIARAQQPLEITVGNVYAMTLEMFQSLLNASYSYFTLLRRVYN
T1 sequence (Q309I4 entry or part of it): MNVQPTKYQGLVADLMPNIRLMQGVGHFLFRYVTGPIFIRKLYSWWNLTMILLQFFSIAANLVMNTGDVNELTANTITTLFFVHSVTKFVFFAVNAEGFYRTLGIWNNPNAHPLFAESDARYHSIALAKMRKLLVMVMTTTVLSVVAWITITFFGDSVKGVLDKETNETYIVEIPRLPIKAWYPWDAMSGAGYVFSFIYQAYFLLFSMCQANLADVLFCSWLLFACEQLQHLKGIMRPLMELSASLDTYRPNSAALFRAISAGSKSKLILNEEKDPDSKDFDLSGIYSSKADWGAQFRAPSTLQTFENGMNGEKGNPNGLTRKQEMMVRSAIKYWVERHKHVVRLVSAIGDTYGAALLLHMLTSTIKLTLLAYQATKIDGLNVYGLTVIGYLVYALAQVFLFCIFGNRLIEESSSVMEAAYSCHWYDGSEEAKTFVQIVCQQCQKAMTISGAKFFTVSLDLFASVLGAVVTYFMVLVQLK

SMILES	Inhibition of activation of Cqui\Orco+Cqui\Or10 by 3-methylindole [1]	Inhibition of activation of Dmel\Orco by 30 µM OLC12 on co-application ([2]; 100 µM compound co-applied with 30 µM OLC12)	IC50 [2] [µM]	Emax at 100 µM [3] [%]	Inhibition of activation of Onub\Orco+Onub\Or1 by E12-14:OAc [4]	Emax at 100 µM [5] [%]	Emax at 100 µM [6] [%]	IC50 [7, 8] [µM]	IC50 ([1]; activated by 10 nM 3-methylindole (EC10), read-out: IC50 for inhibition of responses to 10 nM 3-MI) [µM]	IC50 ([1]; activated by 100 nM 3-methylindole (EC53), read-out: IC50 for inhibition of responses to 100 nM 3-MI) [µM]	IC50 ([7]; activated by 100 µM OLC12, read-out: IC50, Dmel\Orco + Dmel\Or35a activated by 100 µM OLC12) [µM]
CCc1ccc(NC(=O)CSc2nnc(-c3ccccn3)n2CC)cc1 [OLC2]	inhibited	inhibits	23 ± 3	0	inhibited	0	2 ± 1	24 ± 5	–	–	–
CCCCc1ccc(NC(=O)CSc2nnc(-c3ccccn3)n2CC)cc1 [OLC15]	inhibited	–	15 ± 2	0	inhibited	0	0	15 ± 1	1.5 ± 0.2	2 ± 0.3	67 ± 7

From publication PMC3348135, “Identification of New Agonists and Antagonists of the Insect Odorant Receptor Co-Receptor Subunit” (PLoS ONE, 2012)
